Test results as given in patent US9546196B2, “Compositions and methods of treatment of cancers” (The University of Toledo, priority 2009, dated 2017).
Ends that are not written are not given here. Peptide text beside a SMILES is read from it. * marks the point of attachment. Cbz = O=C(OCc1ccccc1)*; CH2F = FC*

system: LNCaP cells; assay: not given; type: cell-based; settings: increasing concentration of peptide, days; with or without 1 nM R1881
Method: FIG. 12B: LNCaP cells were grown without androgen for 2 or 4 days in the presence of increasing concentration of Peptide A-8R [SEQ ID NO: 1] (upper left), Peptide B-8R [SEQ ID NO: 2] (upper right), Peptide C-8R [SEQ ID NO: 3] (lower left), or Peptide D-8R [SEQ ID NO: 4] (lower right). The MTT reagent was used to measure cell density.
FIG. 13A: LNCaP cells were grown with (Right) or without (Left) 1 nM androgen ([…]) for 3 or 6 days in the presence of increasing concentration of Peptide A-8R [SEQ ID NO: 1] or vehicle (70% DMSO). The MTT reagent was used to measure cell density.
FIG. 13B: LNCaP cells were grown with (Right) or without (Left) 1 nM androgen (R1881) for 3 or 6 days in the presence of increasing concentration of Peptide C-8R [SEQ ID NO: 3] or vehicle and then cell density was measured.
FIG. 14A: LNCaP cells were grown with (Right) or without (Left) 1 nM R1881 for 3 or 6 days in the presence of increasing concentration of Peptide A or vehicle and then cell density was measured.
FIG. 14B: LNCaP cells were grown with (Right) or without (Left) 1 nM R1881 for 3 or 6 days in the presence of increasing concentration of Peptide A-8R [SEQ ID NO: 1] or vehicle and then cell density was measured.
FIG. 15A: LNCaP cells were grown for 1-8 hrs in the presence of 10 μM Peptide A-8R [SEQ ID NO: 1] or vehicle and then cell density was measured.
FIG. 19C: LNCaP cells were grown with for 12 or 48 hrs in the presence of increasing concentration of Peptide A-8R [SEQ ID NO: 1] (Left) or PeptideA-8R-Biotin [SEQ ID NO: 1] (Right) and then cell density was measured.
Each peptide contained 8 arginines at the C-terminus, a sequence which is known to mediate plasma membrane translocation and cellular internalization.
To measure how rapid the cytotoxic effect of Peptide A-8R [SEQ ID NO: 1] occurs, LNCaP cells were treated with 10 μM peptide and incubated for 1-8 hrs. […] Using the same conditions, C81 cells were used to study the peptide effect on hormone-refractory prostate cancer cells.

Compound | effect on LNCaP cell growth / cytotoxicity (in words)
Ac-LRLKGQMIYLRRRRRRRR-OH [Peptide B-8R] | stopped the growth
Ac-PLHDATRDLVRRRRRRRR-OH [Peptide C-8R] | no effect
Ac-TFCKAFPFHII [Peptide A] | no effect

system: MDM2; assay: Western blotting of MDM2 in LNCaP nuclear and cytosolic extracts; type: cell-based; settings: LNCaP cells
Method: FIG. 4B: Nuclear (N) and cytosolic (C) extracts were prepared from LNCaP cells and Western blotting was used to measure protein levels of MDM2, p53, JAB1, and sGCα1. β-actin was used as loading control.
LNCaP cells were infected with an sGCα1-expressing adenovirus or control empty virus and p53 subcellular localization was measured by Western blotting following cell fractionation.

Compound | MDM2 cytoplasmic levels
CC(C)C[C@@H](C=O)NC(=O)[C@H](CC(C)C)NC(=O)[C@H](CC(C)C)NC(=O)OCc1ccccc1 [MG132] (Cbz-Leu-Leu-Leu-aldehyde) | significantly enhanced

system: LNCaP cells; assay: Relief of Peptide A-8R cytotoxicity by pan-caspase inhibitor in LNCaP cells; type: cell-based; settings: 40 mM Z-VAD-FMK, 4 hrs
Method: FIG. 18B: LNCaP cells were grown for 4 hrs in the presence of increasing concentration of Peptide A-8R [SEQ ID NO: 1] with or without […] Z-VAD-FMK and then cell density was measured.
To determine if the cytotoxicity of Peptide A-8R [SEQ ID NO: 1] is through apoptosis, LNCaP cells were monitored for Caspase 3/7 activity. […] Thus, Peptide A-8R [SEQ ID NO: 1] was able to induce Caspase 3/7 activity much faster than the well-studied apoptosis-inducing drug Etoposide. To confirm that the Peptide was killing cells via apoptosis, the inventors used the pan-caspase inhibitor Z-VAD-FMK.

Compound | effect on Vehicle-treated cells
COC(=O)C[C@H](NC(=O)[C@H](C)NC(=O)[C@@H](NC(=O)OCc1ccccc1)C(C)C)C(=O)CF [Z-VAD-FMK] (Cbz-Val-Ala-Asp(OMe)-CH2F) | no significant effect

same assay, conditions: pretreatment with 40 mM Z-VAD-FMK, peptide up to 50 μM, 4 hrs

Compound | relief of the Peptide A-8R cytotoxic effect
COC(=O)C[C@H](NC(=O)[C@H](C)NC(=O)[C@@H](NC(=O)OCc1ccccc1)C(C)C)C(=O)CF [Z-VAD-FMK] (Cbz-Val-Ala-Asp(OMe)-CH2F) | complete relief

system: p53 transcriptional activity; assay: p53-Luc reporter assay, sGCα1-mediated repression of p53 transcriptional activity in LNCaP cells; type: cell-based; settings: 100 nM of drug
Text: FIGS. 1A-1F: Over-expression of sGCα1 inhibits p53 transcriptional activity. p53 activity was quantified by measuring luciferase activity. Bar graphs represent the average of three independent experiments plus standard deviation. All cells received the same amount of transfected expression plasmid and that pCH110 was used to control transfection efficiency.
FIGS. 2A-2F: The sGCα1-mediated repression of p53 transcriptional activity is independent of mediators of NO signaling and guanylyl cyclase activity. Androgen-dependent LNCaP cells were transfected with 0.5 μg pCH110, 0.1 μg p53-Luc reporter plasmid, and subjected to different treatments:
FIG. 2A: Cells were transfected with 0.5 μg pCH110, 0.1 μg p53-Luc reporter plasmid, and subjected to […] ODQ.
FIG. 2C: Cells were treated with different concentrations of C-PTIO.
FIG. 2D: Cells were treated with different concentrations of SNP.
FIG. 2E: Cells were treated with different concentrations of 8-Br-cGMP.
(§1) To determine whether nitric oxide (NO) signaling is involved in sGCα1-mediated repression of p53 transcriptional activity, NO interfering drugs were used.
Supporting this finding, the NO donor SNP had no effect (FIG. 2D).

Compound | p53 activity
CC1(C)N([O])C(c2ccc(C(=O)O)cc2)=[N+]([O-])C1(C)C [C-PTIO] | inhibit p53 activity

same assay, conditions: 5 or 50 mM ODQ

Compound | effect on sGCα1-mediated repression of p53
O=c1onc2cnc3ccccc3n12 [ODQ] | no effect

same assay, conditions: different concentrations

Compound | p53 transcriptional activity
Nc1nc2c(nc(Br)n2[C@@H]2O[C@@H]3COP(=O)(O)O[C@H]3[C@H]2O)c(=O)[nH]1 [Peptide 8-Br-cGMP, 8-Br-cGMP] | weakly enhanced

system: sGCα1; assay: Western blotting of sGCα1 expression in VCaP cells; type: cell-based; settings: 1 nM R1881
Method: FIG. 11A: VCaP cells were treated with or without 1 nM R1881 and Western blotting was used to measure expression of sGCα1. β-actin was used as a loading control.

Compound | sGCα1 protein expression
C[C@]1(O)CC[C@H]2[C@@H]3CCC4=CC(=O)CCC4=C3C=C[C@@]21C [Peptide R1881, R1881] | significantly induced

system: LNCaP cells; assay: LNCaP cell viability with etoposide, MTT assay; type: cell-based; settings: 10 μM etoposide, two days
Method: FIG. 7B: Over-expression of sGCα1 protects prostate cancer cells from the lethal effects of etoposide. LNCaP cells were infected with control empty adenovirus (−sGCα1; 20 MOI) or sGCα1-expressing adenovirus (+sGCα1; 2 or 20 MOI) and treated with 10 μM etoposide. After two days of incubation, cell number was quantified by MTT assay. Bar graphs represent averages of three independent experiments plus standard deviations. All activities are relative to the first condition, and this activity was set to 100%.
LNCaP cells were infected with an sGCα1-expressing adenovirus and treated with etoposide, an inducer of apoptosis. […] This finding, together, with the PCR array data showing that sGCα1 can regulate Survivin expression, is consistent with results showing that Survivin desensitizes prostate cancer cells to etoposide.

Compound | viability of LNCaP cells
COc1cc([C@@H]2c3cc4c(cc3[C@@H](O[C@@H]3O[C@@H]5CO[C@@H](C)O[C@H]5[C@H](O)[C@H]3O)[C@H]3COC(=O)[C@H]23)OCO4)cc(OC)c1O [Etoposide] | significantly reduced

biological target: sGC (Homo sapiens, UniProt Q02153); assay: sGC-catalyzed cGMP synthesis (data not shown); type: biochemical; settings: the two ODQ concentrations
Text: as §1

sGC, sequence (Q02108 whole entry partner): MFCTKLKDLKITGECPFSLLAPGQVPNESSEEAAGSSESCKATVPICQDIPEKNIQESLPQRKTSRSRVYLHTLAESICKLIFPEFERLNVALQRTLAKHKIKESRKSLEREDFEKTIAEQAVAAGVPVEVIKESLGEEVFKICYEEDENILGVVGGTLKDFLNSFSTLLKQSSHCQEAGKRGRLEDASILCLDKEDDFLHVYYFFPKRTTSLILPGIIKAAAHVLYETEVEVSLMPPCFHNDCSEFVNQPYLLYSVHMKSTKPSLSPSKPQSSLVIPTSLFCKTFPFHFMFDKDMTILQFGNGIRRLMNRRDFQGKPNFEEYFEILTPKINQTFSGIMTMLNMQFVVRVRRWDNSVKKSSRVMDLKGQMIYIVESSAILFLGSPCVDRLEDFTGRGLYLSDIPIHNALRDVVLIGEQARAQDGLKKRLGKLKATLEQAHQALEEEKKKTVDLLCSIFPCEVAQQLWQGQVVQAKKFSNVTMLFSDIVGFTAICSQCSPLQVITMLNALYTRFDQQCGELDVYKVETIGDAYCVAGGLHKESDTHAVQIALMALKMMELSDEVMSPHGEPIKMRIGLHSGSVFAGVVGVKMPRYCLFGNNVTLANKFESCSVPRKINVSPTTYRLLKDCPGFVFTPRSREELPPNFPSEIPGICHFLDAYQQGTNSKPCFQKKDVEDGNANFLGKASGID
sGC, sequence (Q02153 whole entry): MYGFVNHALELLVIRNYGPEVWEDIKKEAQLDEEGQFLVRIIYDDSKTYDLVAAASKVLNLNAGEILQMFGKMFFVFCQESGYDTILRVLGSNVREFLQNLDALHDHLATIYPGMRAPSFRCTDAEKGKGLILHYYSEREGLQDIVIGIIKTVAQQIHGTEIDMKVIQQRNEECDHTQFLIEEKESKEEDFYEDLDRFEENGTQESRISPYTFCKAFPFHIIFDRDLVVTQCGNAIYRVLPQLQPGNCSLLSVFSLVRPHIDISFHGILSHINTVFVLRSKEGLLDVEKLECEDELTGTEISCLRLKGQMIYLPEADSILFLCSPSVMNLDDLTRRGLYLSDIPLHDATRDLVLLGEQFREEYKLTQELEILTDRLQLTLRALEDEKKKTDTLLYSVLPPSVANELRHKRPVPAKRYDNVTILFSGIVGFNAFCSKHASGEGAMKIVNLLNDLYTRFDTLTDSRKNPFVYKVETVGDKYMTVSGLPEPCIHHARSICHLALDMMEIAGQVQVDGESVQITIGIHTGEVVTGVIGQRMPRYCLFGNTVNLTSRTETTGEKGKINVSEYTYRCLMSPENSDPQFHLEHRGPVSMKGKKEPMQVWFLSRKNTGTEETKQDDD

Compound | sGC-catalyzed cGMP synthesis
O=c1onc2cnc3ccccc3n12 [ODQ] | strongly inhibited

system: LNCaP cell culture; assay: not given; type: cell-based; settings: not given
Text: In one non-limiting example, Peptide A-8R [SEQ ID NO: 1] can be truncated to a smaller peptide that retains the same type of biological activity profile. In certain embodiments, truncating Peptide A-8R [SEQ ID NO: 1] results in greater potency upon conversion of some of the pharmacophore functionalities to peptidomimetic groups that can, in turn, enhance key interactions by lowering the net binding energy. In one experiment, Peptide A-8R [SEQ ID NO: 1] was divided into two parts, using the central proline residue as the division point. […] A minimum number of amino acids desired for cytotoxicity was then identified. […] The following Peptide A truncated and derivative probes were synthesized and evaluated for their effect on cytotoxicity after 3- and 6-day exposures:
The following table lists cell culture data for truncated Peptide A peptides. The amino acid sequences and IC50 values in μM concentrations depict cytotoxicity after 3- and 6-day exposures (“NotA” means not active). “8R” [SEQ ID NO: 6] signifies that 8 arginines are present on the carboxy terminus to mediate membrane translocation. The data has shown that the 8R terminus [SEQ ID NO: 6] can be either as the free carboxy (—OH) or amide (—NH2) with no alteration of permeation or observed activity.
The table below lists LNCaP cell culture data for various Peptide A derivatives, displaying the observed IC50 values in μM concentrations after 3- and 6-day exposures.

Compound | cytotoxicity / activity in cells (in words) | Cytotoxicity
C[C@H](NC(=O)[C@H](CCCCN)NC(=O)[C@H](CS)NC(=O)[C@@H](N)Cc1ccccc1)C(=O)O [FA4, FCKA] (H-FCKA-OH) | diminished but yet still significant cytotoxicity | –
C[C@@H](O)[C@H](N)C(=O)N[C@@H](Cc1ccccc1)C(=O)N[C@@H](CS)C(=O)O [TC3, TFC] (H-Thr-Phe-Cys-OH) | diminished but yet still significant cytotoxicity | –
ACKAFRRRRRRRR-NH2 [AF5-8R] | – | Yes
CKAFRRRRRRRR-NH2 [Peptide CF4-8R] | lower-level activities retained | Yes
FAKAFRRRRRRRR-NH2 [Peptide FF5-C2A-8R] | dramatically reduced activity | Yes
FCAAFRRRRRRRR-NH2 [FF5-K3M-8R] | – | Yes
FCKAARRRRRRRR-NH2 [FA5-8R] | – | Yes
FCKAF [FF5-OH, FCKAF] | – | No
FCKAF [FF5] | inactive | –
FCKAF-NH2 [FF5-NH2, FCKAF] | – | No
FCKAFPRRRRRRRR-NH2 [Peptide FP6-8R] | – | Yes
FCKAFRRRRRRRR-NH2 [Peptide FF5-8R] | – | Yes
FCKARRRRRRRR [Peptide FA4-8R] | lower-level activities retained | Yes
FMKAFRRRRRRRR-NH2 [Peptide FF5-C2M-8R] | significant activity was retained | Yes
KAFPFHRRRRRRRR [Peptide KH6-8R] | – | No
KAFPRRRRRRRR [Peptide KP4-8R] | – | No
PFHII [PI5, PFHII] | no activity | –
PFHIIRRRRRRRR-NH2 [Peptide PI5-8R] | – | No
TFCKAFP [TP7, TFCKAFP] | retained cytotoxicity | –
TFCKAFPRRRRRRRR-NH2 [Peptide TP7-8R] | – | Yes
TFCKAFRRRRRRRR-NH2 [Peptide TF6-8R] | quite comparable | Yes
TFCRRRRRRRR [Peptide TC3-8R] | lower-level activities retained | Yes
